Assay results as given in US20250345446A1 (Draupnir Bio ApS, priority 2022, published 2025).
Residues, ends and D or L forms follow the SMILES beside them. *: point of attachment. Biotin = O=C1N[C@H]2[C@H](CS[C@H]2CCCCC(=O)*)N1

Each molecule was assayed against T1, soluble ectodomain of sortilin-6his (Homo sapiens, UniProt Q99523, V650M) (assay: MST binding to soluble ectodomain of sortilin-6his). Settings: Table 1; biotin-linker-peptide bifunctional compounds; MST; read-out: KD score, binding to sortilin (Kd).
T1 construct: the soluble ectodomain of sortilin-6his is measured by microscale thermophoresis (MST)
T1 sequence (Q99523 with tags, fused parts or gaps V650M): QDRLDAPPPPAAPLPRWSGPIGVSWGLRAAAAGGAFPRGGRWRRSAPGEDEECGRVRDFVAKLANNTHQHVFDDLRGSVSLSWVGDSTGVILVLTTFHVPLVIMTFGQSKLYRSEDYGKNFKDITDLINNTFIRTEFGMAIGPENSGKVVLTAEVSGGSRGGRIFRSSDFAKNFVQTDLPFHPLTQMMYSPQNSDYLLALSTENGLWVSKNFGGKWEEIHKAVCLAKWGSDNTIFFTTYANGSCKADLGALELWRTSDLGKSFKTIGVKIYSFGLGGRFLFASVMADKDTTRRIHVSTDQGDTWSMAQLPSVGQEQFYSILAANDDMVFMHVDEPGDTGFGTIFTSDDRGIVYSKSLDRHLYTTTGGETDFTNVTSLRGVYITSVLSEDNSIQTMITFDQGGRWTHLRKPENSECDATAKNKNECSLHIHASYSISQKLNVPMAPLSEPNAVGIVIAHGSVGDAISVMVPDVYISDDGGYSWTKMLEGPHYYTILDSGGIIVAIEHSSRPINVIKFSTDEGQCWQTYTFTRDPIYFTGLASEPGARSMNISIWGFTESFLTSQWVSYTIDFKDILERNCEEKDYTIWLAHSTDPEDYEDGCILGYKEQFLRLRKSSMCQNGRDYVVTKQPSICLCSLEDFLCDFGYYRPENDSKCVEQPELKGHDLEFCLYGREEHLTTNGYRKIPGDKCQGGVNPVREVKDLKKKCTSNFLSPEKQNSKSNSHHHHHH
With `CC(C)C[C@H](NC(=O)[C@H](CC(C)C)NC(=O)[C@H](CCC(N)=O)NC(=O)[C@H](Cc1ccccc1)NC(=O)CNC(=O)CNC(=O)CNC(=O)CNC(=O)[C@H](CO)NC(=O)CNC(=O)CNC(=O)CCCC[C@@H]1SC[C@@H]2NC(=O)N[C@@H]21)C(=O)O` [compound 143] (Biotin-GGSGGGGFQLL-OH) the Kd was under 100 nM. Molecule `CC(C)C[C@H](NC(=O)[C@H](CC(C)C)NC(=O)[C@H](CCC(N)=O)NC(=O)[C@H](Cc1ccccc1)NC(=O)CNC(=O)CNC(=O)[C@H](CO)NC(=O)CNC(=O)CNC(=O)CCCC[C@@H]1SC[C@@H]2NC(=O)N[C@@H]21)C(=O)O` [compound 144] (Biotin-GGSGGFQLL-OH) has a Kd of under 100 nM.

Same assay, conditions: Table 3; monofunctional peptides; MST; read-out: KD score, binding to sortilin (Kd)
`CC(C)C[C@H](NC(=O)[C@H](Cc1ccc(O)cc1)NC(=O)[C@H](Cc1ccc(O)cc1)NC(=O)[C@@H](N)CCCNC(=N)N)C(=O)O` [compound 36] (H-RYYL-OH) gave a Kd of 25 to 250 nM. `CC(C)C[C@H](NC(=O)[C@H](Cc1ccccc1)NC(=O)[C@H](Cc1ccc(O)cc1)NC(=O)[C@@H](N)CCCNC(=N)N)C(=O)O` [compound 37] (H-RYFL-OH) was tested, and the Kd was 250 to 2500 nM. Molecule `CC(C)C[C@H](NC(=O)[C@H](Cc1ccccc1)NC(=O)[C@H](CCC(N)=O)NC(=O)[C@@H](N)CCCNC(=N)N)C(=O)O` [compound 38] (H-RQFL-OH) has a Kd of 250 to 2500 nM. With `CC(C)C[C@H](NC(=O)[C@H](Cc1ccc(O)cc1)NC(=O)[C@H](CCC(N)=O)NC(=O)[C@@H](N)CCCNC(=N)N)C(=O)O` [compound 39] (H-RQYL-OH) the Kd was 250 to 2500 nM. `CC(C)C[C@H](NC(=O)[C@H](CC(C)C)NC(=O)[C@H](CCC(N)=O)NC(=O)[C@@H](N)Cc1c[nH]cn1)C(=O)O` [compound 41] (H-HQLL-OH; N-terminus assumed) gave a Kd of over 2500 nM. Molecule `CC[C@H](C)[C@H](N)C(=O)N[C@@H](CCC(N)=O)C(=O)N[C@@H](CC(C)C)C(=O)N[C@@H](CC(C)C)C(=O)O` [compound 42] (H-IQLL-OH; N-terminus assumed) has a Kd of 250 to 2500 nM. `CC(C)C[C@H](NC(=O)[C@H](Cc1ccc(O)cc1)NC(=O)[C@H](Cc1ccc(O)cc1)NC(=O)[C@@H](N)Cc1ccccc1)C(=O)O` [compound 43] (H-FYYL-OH; N-terminus assumed) gave a Kd of over 2500 nM. `CC(C)C[C@H](NC(=O)[C@H](CCCNC(=N)N)NC(=O)[C@H](CCCNC(=N)N)NC(=O)[C@H](CCCCN)NC(=O)[C@H](CCCCN)NC(=O)[C@H](Cc1ccccc1)NC(=O)[C@H](CC(C)C)NC(=O)[C@@H](N)CCCNC(=N)N)C(=O)N[C@@H](CCCNC(=N)N)C(=O)N[C@@H](CO)C(=O)N1CCC[C@H]1C(=O)N[C@@H](CCCNC(=N)N)C(=O)N[C@H](C(=O)N[C@@H](CC(C)C)C(=O)N[C@@H](Cc1ccccc1)C(N)=O)C(C)C` [compound 47] gave a Kd of over 2500 nM. Work on `CC(C)C[C@H](NC(=O)[C@H](CC(C)C)NC(=O)[C@H](CCC(N)=O)NC(=O)[C@H](CCCNC(=N)N)NC(=O)[C@H](CC(C)C)NC(=O)[C@H](C)NC(=O)[C@@H]1CCCN1C(=O)[C@H](CC(=O)O)NC(=O)[C@H](CCCNC(=N)N)NC(=O)[C@H](CC(C)C)NC(=O)[C@@H]1CCCN1C(=O)[C@H](C)NC(=O)[C@H](CC(=O)O)NC(=O)[C@H](Cc1c[nH]c2ccccc12)NC(=O)[C@H](CCCNC(=N)N)NC(=O)[C@@H]1CCCN1C(=O)[C@H](C)NC(=O)[C@H](CCC(=O)O)NC(=O)[C@@H](N)CCCNC(=N)N)C(=O)O` [compound 53] yielded a Kd of under 25 nM. `CC[C@H](C)[C@H](NC(=O)[C@H](Cc1ccc(O)cc1)NC(=O)[C@@H]1CCCN1C(=O)[C@H](CCCNC(=N)N)NC(=O)[C@H](CCCNC(=N)N)NC(=O)[C@@H]1CCCN1C(=O)[C@H](CCCCN)NC(=O)[C@H](CC(N)=O)NC(=O)[C@H](CCC(=O)O)NC(=O)[C@H](Cc1ccc(O)cc1)NC(=O)[C@@H](N)CC(C)C)C(=O)N[C@@H](CC(C)C)C(=O)O` [compound 56] was tested, and the Kd was 25 to 250 nM. `CC(C)C[C@H](N)C(=O)N[C@@H](Cc1ccc(O)cc1)C(=O)N[C@@H](CCC(=O)O)C(=O)N[C@@H](CC(N)=O)C(N)=O` [compound 64] (H-LYEN-NH2; N-terminus assumed) showed a Kd of over 2500 nM.
